The record followed here is US7151105B2, “Inhibitors of Hepatitis C virus RNA-dependent RNA polymerase, and compositions and treatments using the same” (Agouron Pharmaceuticals, Inc., priority 2004, dated 2006).

This test deals with T1, Recombinant HCV polymerase (Hepatitis C virus genotype 1b, UniProt P26663).
T1 construct: Recombinant HCV polymerase was tested for its ability to perform primer/template-directed transcription
T1 sequence (P26663 2420-3010): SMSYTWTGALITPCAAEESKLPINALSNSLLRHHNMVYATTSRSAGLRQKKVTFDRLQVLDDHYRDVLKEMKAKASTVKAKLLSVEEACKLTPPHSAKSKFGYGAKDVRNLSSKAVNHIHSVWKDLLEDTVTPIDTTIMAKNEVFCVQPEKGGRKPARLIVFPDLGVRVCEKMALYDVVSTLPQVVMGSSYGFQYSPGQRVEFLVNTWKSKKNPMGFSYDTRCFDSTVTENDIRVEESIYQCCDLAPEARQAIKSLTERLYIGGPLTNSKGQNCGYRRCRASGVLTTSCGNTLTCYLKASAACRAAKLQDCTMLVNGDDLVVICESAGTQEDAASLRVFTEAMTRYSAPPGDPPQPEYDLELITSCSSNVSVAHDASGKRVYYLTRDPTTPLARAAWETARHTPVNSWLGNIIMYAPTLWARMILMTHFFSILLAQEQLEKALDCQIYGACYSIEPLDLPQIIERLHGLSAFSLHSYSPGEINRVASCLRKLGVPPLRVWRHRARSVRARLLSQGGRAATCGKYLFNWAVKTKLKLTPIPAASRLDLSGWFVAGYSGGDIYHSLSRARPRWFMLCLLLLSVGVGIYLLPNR
The test is described as follows: biochemical. The settings on record: inhibition of polymerase-directed transcription; 30 min at 30° C; 30 nM enzyme; cpm data in triplicate. In a few lines:
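Primer/template-directed RNA synthesis by 2.5 pmol HCV polymerase on poly(rC)300/biotin-dG12 with 1 μM GTP plus α-32P-GTP, in pH 7.2 Tris buffer with 10 mM MgCl2, for 30 min at 30 °C. Products were filter-captured and counted, with 1% DMSO final. IC50 was fitted from triplicate cpm; percent inhibition was reported where IC50 was impractical.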
A word on the IC50: it is the concentration that inhibits the measured activity by half. On to `CCc1cc(CCC2(C3CCCC3)CC(O)=C(Cc3nc4nc(C)cc(C)n4n3)C(=O)O2)c2c(c1O)CCO2` (single isomer, unassigned; enantiomer 2) [A(13), Enantiomer 2 of 6-Cyclopentyl-3-[(5,7-dimethyl[1,2,4]triazolo[1,5-a]pyrimidin-2-yl)methyl]-6-[2-(5-ethyl-4-hydroxy-2,3-dihydro-1-benzofuran-7-yl)ethyl]-4-hydroxy-5,6dihydro-2H-pyran-2-one], for which the half-inhibitory concentration (IC50) was 1 nM.

`Cc1cnc2nc(CC3=C(O)CC(CCc4cc(F)c(C(C)(C)C#N)cc4O)(C4CCCC4)OC3=O)nn2c1` (stereo not drawn) [A(79), 2-[4-(2-{2-Cyclopentyl-4-hydroxy-5-[(6-methyl[1,2,4]triazolo[1,5-a]pyrimidin-2-yl)methyl]-6-oxo-3,6-dihydro-2H-pyran-2-yl}ethyl)-2-fluoro-5-hydroxyphenyl]-2-methylpropanenitrile]: the IC50 was 12 nM.

As for `Cc1cc(C)n2nc(CC3=C(O)CC(CCc4cc(C)c(O)c(CC(F)(F)F)c4)(C4CCCC4)OC3=O)nc2n1` (stereo not drawn) [A(76), 6-Cyclopentyl-3-[(5,7-dimethyl[1,2,4]triazolo[1,5-a]pyrimidin-2-yl)methyl]-4-hydroxy-6-{2-[4-hydroxy-3-methyl-5-(2,2,2-trifluoroethyl)phenyl]ethyl}-5,6-dihydro-2H-pyran-2-one], the IC50 was found to be 5 nM.

As for `CCc1cc(CCC2(C3CCCC3)CC(O)=C(Cc3nc4nc(C)cc(C)n4n3)C(=O)O2)ccc1CC#N` (single isomer, unassigned; enantiomer 2) [A(117), Enantiomer 2 of [4(2-{2-Cyclopentyl-5[(5,7-dimethyl[1,2,4]triazolo[1,5-a]pyrimidin-2-yl)methyl]-4-hydroxy-6-oxo-3,6dihydro-2H-pyran-2-yl}ethyl)-2-ethylphenyl]acetonitrile], the IC50 came out at 5 nM.

For the molecule `Cc1cc(C)n2nc(CC3=C(O)CC(CCc4ccc(S(C)(=O)=O)c(C(F)(F)F)c4)(C4CCCC4)OC3=O)nc2n1` (stereo not drawn) [B(4), 6-Cyclopentyl-3-[(5,7-dimethyl[1,2,4]triazolo[1,5-a]pyrimidin-2-yl)methyl]-4-hydroxy-6-{2-[4-(methylsulfonyl)-3-(trifluoromethyl)phenyl]ethyl}-5,6-dihydro-2H-pyran-2-one], the IC50 came to 6 nM.

As for `CCc1cc(CCC2(C3CCCC3)CC(O)=C(Cc3nc4nc(C)cc(C)n4n3)C(=O)O2)ccc1OCCNC(=O)OC(C)(C)C` (stereo not drawn) [A(70), tert-Butyl 2-[4-(2-{2-cyclopentyl-5-[(5,7-dimethyl[1,2,4]triazolo[1,5-a]pyrimidin-2-yl)methyl]-4-hydroxy-6-oxo-3,6-dihydro-2H-pyran-2-yl}ethyl)-2-ethylphenoxy]ethylcarbamate], the IC50 was 14 nM.

For `CCc1cc(CCC2(C3CCCC3)CC(O)=C(Cc3nc4nc(C)cc(C)n4n3)C(=O)O2)ccc1-c1ncco1` (single isomer, unassigned; enantiomer 1) [A(138), Enantiomer 1 of 6-Cyclopentyl-3-[(5,7-dimethyl[1,2,4]triazolo[1,5-a]pyrimidin-2-yl)methyl]-6-{2-[3-ethyl-4-(1,3-oxazol-2-yl)phenyl]ethyl}-4-hydroxy-5,6-dihydro-2H-pyran-2-one], the IC50 amounted to 10 nM.

Regarding `Cc1cc(C)n2nc(CC3=C(O)CC(CCc4cnc(C(C)(C)C#N)c(Cl)c4)(C4CCCC4)OC3=O)nc2n1` (racemic) [Example B(39), 2-[3-chloro-5-(2-{2-cyclopentyl-5-[(5,7-dimethyl[1,2,4]triazolo[1,5-a]pyrimidin-2-yl)methyl]-4-hydroxy-6-oxo-3,6-dihydro-2H-pyran-2-yl}ethyl)pyridin-2-yl]-2-methylpropanenitrile], the IC50 turned out to be 12 nM.

In the case of `CCc1ccc(=O)n(CCC2(C3CCCC3)CC(O)=C(Cc3nc4nc(C)cc(C)n4n3)C(=O)O2)c1` (stereo not drawn) [B(31), 1-(2-{2-Cyclopentyl-5-[(5,7-dimethyl[1,2,4]triazolo[1,5-a]pyrimidin-2-yl)methyl]-4-hydroxy-6-oxo-3,6-dihydro-2H-pyran-2-yl}ethyl)-5-ethylpyridin-2(1H)-one], the IC50 was determined as 180 nM.
